From paper PMC11460631, “Inhibition of transient receptor potential vanilloid 3 channels by antimalarial hydroxychloroquine alleviates TRPV3-dependent dermatitis” (The Journal of Biological Chemistry, 2024) come the findings set out here.

Molecules are shown by their SMILES.

This assay concerns the target T1, TRPV3 L591A mutant (Homo sapiens, UniProt Q8NET8, L591A).
T1 construct: YFP or GFP; expressed in transfected cells; host or cells: HEK293T
T1 sequence (Q8NET8 1-790 L591A): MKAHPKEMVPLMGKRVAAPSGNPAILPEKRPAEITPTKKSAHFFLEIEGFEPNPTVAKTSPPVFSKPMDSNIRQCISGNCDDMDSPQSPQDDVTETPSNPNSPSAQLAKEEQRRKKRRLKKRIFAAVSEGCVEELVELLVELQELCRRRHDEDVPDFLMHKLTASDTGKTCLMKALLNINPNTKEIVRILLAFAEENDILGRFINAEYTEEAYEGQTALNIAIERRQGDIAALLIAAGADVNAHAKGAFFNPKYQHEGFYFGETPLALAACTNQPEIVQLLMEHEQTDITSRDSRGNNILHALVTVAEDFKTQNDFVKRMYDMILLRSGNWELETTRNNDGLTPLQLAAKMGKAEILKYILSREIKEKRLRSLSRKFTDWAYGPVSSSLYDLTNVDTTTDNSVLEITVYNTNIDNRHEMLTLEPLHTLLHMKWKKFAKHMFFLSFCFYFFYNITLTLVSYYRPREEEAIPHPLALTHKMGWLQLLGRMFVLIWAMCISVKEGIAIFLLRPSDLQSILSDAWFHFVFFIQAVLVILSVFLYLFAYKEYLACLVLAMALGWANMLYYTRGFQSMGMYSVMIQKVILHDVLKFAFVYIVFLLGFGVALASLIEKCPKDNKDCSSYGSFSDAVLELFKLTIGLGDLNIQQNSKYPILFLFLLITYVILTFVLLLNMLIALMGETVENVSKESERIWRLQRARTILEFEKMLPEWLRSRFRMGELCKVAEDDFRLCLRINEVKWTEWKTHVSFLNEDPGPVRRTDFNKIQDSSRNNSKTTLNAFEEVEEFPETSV
The assay is described as follows: Whole-cell recording of TRPV3 L591A mutant. In kind it is cell-based. An excerpt: As we mentioned above, HCQ may act as a pore blocker of TRPV3. To probe the binding configuration of HCQ to TRPV3, we carried out molecular docking using Rosetta suite (https://rosettacommons.org) ([21]) and validated the docking models with point mutations in TRPV3 (Fig. 4A). […] Furthermore, when we introduced L670A to L591A mutant, we also observed a left shift on the concentration–response curve on this double mutant as compared to L591A mutant (Fig. 4H).
Figure 4 Residues of the pore domain are critical for HCQ inhibition on TRPV3.A, left panel, docking model of HCQ to the pore domain of TRPV3 structure (6uw4). Right panels, top view and side view of the HCQ-binding pocket. B-J, representative whole-cell recording of TRPV3 and mutants in response to 1 mM 2-APB, the mixture of 1 mM 2-APB and concentration gradients of HCQ with the holding potential of ± 80 mV. K, concentration–response curves of HCQ in WT TRPV3 and mutants (n = 3–5 cells). L, quantification of the inhibitory ratio of HCQ (100 μM) on WT, L591A, and N671Q. […]
All data from whole-cell recordings were analyzed in Igor Pro (WaveMetrics). IC50 values were determined by fitting the Hill equation to concentration-response relationships. […]

As for `CCN(CCO)CCCC(C)Nc1ccnc2cc(Cl)ccc12` (centres unmarked) [HCQ, hydroxychloroquine], 100 µM produced 28.4% inhibition (100 μM HCQ). The 50% inhibitory concentration (IC50) – broadly, the concentration that gives 50% inhibition – (1 mM 2-APB, ± 80 mV) worked out at 203 ± 10.8 µM.
